Source: article PMC9283524 (Nature Communications, 2022)
Values joined by “and” are separate entries in the source; they are usually repeats but may differ in a detail not shown here. Equal values may be shown once. Read-outs that look alike come from different tables or passages of the source.

Assays:
turkey β1-AR L101^2.64A = turkey β1-AR L101^2.64A (Meleagris gallopavo, UniProt P07700, L101A); test: cell-based
Procedure: (§1) CHO cells (transfected with a control empty vector or wild-type or mutant turkey β1-AR) were plated onto six-well plates, and were pre-incubated with culture medium buffered with 0.5 mM IBMX for 30 min at 37 °C[20]. […] After culture medium removal, cells were treated with 0.1 M HCl for 10 minutes at room temperature. After centrifugation, the supernatant was used for cAMP quantification using the Direct Cyclic AMP Enzyme Immunoassay kit (Enzo Life Sciences). […] The cAMP assays were repeated three times, and the data are represented as mean ± SD of the three independent experiments. The analysis was done using the log(agonist) vs. response function of Prism 8 (GraphPad)[20].

turkey β1-AR W117^3.28A = turkey β1-AR W117^3.28A (Meleagris gallopavo, UniProt P07700, W117A); test: cell-based
Procedure: as §1

wild-type turkey β1-AR [1] = biological target: T1, wild-type turkey β1-AR (Meleagris gallopavo, UniProt P07700); details: cited from earlier work
turkey β1-AR Q150^ICL2A = turkey β1-AR Q150^ICL2A (Meleagris gallopavo, UniProt P07700, Q150A); assay type: cell-based; details: for cAMP level: Fig 5c,e source data, Q150A
Procedure: as §1

turkey β1-AR P146^ICL2A = turkey β1-AR P146^ICL2A (Meleagris gallopavo, UniProt P07700, P146A); assay type: cell-based
Procedure: as §1

turkey β1-AR T291^6.36A = turkey β1-AR T291^6.36A (Meleagris gallopavo, UniProt P07700, T291A); assay type: cell-based; details: for cAMP level: Fig 5c,e source data, T291A
Procedure: as §1

turkey β1-AR F147^ICL2A = turkey β1-AR F147^ICL2A (Meleagris gallopavo, UniProt P07700, F147A); assay type: cell-based
Procedure: as §1

turkey β1-AR S151^ICL2A = turkey β1-AR S151^ICL2A (Meleagris gallopavo, UniProt P07700, S151A); assay type: cell-based; details: for cAMP, time course: S151ICL2A
Procedure: as §1

wild-type turkey β1-AR [2] = biological target: T1, wild-type turkey β1-AR; assay type: cell-based
Procedure: as §1

turkey β1-AR E233^5.64A = turkey β1-AR E233^5.64A (Meleagris gallopavo, UniProt P07700, E233A); assay type: cell-based
Procedure: as §1

turkey β1-AR Q237^5.68A = turkey β1-AR Q237^5.68A (Meleagris gallopavo, UniProt P07700, Q237A); assay type: cell-based; details: for cAMP level: Fig 5c,e source data, Q237A
Procedure: as §1

turkey β1-AR V230^5.61A = turkey β1-AR V230^5.61A (Meleagris gallopavo, UniProt P07700, V230A); assay type: cell-based; details: for cAMP level: Fig 5c,e source data, V230A; for cAMP, time course: V2305.61A
Procedure: as §1

wild-type turkey β1-AR [3] = biological target: T1, wild-type turkey β1-AR; test: cAMP assay, time course, transfected CHO cells; assay type: cell-based; details: for cAMP, time course: WT
Procedure: as §1

[4] = tested on: ligand-bound nucleotide-free β1-AR–Gs complex; assay type: biochemical, turkey; details: ligand at ~EC90; 10 μM BODIPY FL GTPγS; 25 °C; mean ± SD
Source text: To investigate whether ligands with different efficacies have different effects on the stability of the intermediate state, we prepared the complex of ligand-bound β1-AR-Gs (nucleotide-free), and quantified the stability of the intermediate state complex (Fig. 7a). Fluorescently labeled BODIPY-GTPγS binding to the ligand-bound β1-AR–Gs (nucleotide-free) complex eventually leads to the dissociation of the complex to produce the fluorescently labeled product Gαs(BODIPY-GTPγS), which is detected by an increase in fluorescence (the β1-AR–Gαs(BODIPY-GTPγS)–Gβγ intermediate is very transient)[31],[35] […] The data were then fitted by nonlinear association analyses and half-life values (t1/2 = ln 2/k) were calculated based on the rate constant (Fig. 7b–e).
The reaction was initiated by adding 10 μM BODIPY™ FL GTPγS (Invitrogen). Relative fluorescence units (RFU) change was measured every 12 s for a total of 60 min at 25 °C. The BODIPY-GTPγS binding data were fitted to one phase exponential association curves using GraphPad Prism 8.

[5] = CHO, 5 min, read-out: Efficacy (% of max cAMP level)

Chain of turkey β1-AR V230^5.61A (P07700 whole entry V230A): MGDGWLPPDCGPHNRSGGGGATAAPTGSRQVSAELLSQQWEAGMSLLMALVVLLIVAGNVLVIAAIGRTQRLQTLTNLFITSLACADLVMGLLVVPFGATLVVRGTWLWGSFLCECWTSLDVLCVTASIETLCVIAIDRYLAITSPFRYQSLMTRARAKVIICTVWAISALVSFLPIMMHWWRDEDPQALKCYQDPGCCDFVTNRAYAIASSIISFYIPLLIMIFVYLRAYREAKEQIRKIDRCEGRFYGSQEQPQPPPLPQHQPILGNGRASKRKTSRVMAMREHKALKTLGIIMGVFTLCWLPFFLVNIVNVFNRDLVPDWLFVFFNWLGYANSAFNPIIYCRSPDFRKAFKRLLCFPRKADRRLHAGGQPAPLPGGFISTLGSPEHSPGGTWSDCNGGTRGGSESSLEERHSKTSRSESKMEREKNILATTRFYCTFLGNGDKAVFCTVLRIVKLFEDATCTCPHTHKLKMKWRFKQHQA
Chain of turkey β1-AR Q150^ICL2A (P07700 whole entry Q150A): as the sequence (P07700 whole entry V230A) above, with Q150A, A230V counted along it
Chain of turkey β1-AR T291^6.36A (P07700 whole entry T291A): as the sequence (P07700 whole entry V230A) above, with A230V, T291A counted along it
Chain of turkey β1-AR F147^ICL2A (P07700 whole entry F147A): as the sequence (P07700 whole entry V230A) above, with F147A, A230V counted along it
Chain of turkey β1-AR S151^ICL2A (P07700 whole entry S151A): as the sequence (P07700 whole entry V230A) above, with S151A, A230V counted along it
Chain of turkey β1-AR Q237^5.68A (P07700 whole entry Q237A): as the sequence (P07700 whole entry V230A) above, with A230V, Q237A counted along it
T1 sequence (P07700 whole entry): as the sequence (P07700 whole entry V230A) above, with A230V counted along it
Chain of turkey β1-AR W117^3.28A (P07700 whole entry W117A): as the sequence (P07700 whole entry V230A) above, with W117A, A230V counted along it
Chain of turkey β1-AR P146^ICL2A (P07700 whole entry P146A): as the sequence (P07700 whole entry V230A) above, with P146A, A230V counted along it
Chain of turkey β1-AR L101^2.64A (P07700 whole entry L101A): as the sequence (P07700 whole entry V230A) above, with L101A, A230V counted along it
Chain of turkey β1-AR E233^5.64A (P07700 whole entry E233A): as the sequence (P07700 whole entry V230A) above, with A230V, E233A counted along it

CC(CCc1ccc(O)cc1)NCCc1ccc(O)c(O)c1 (stereo not drawn) [Dobutamine, dobutamine]
EC50 (turkey β1-AR L101^2.64A): 6.61 µM
Emax (turkey β1-AR L101^2.64A; [5]): 37 ± 1.1%
EC50 (turkey β1-AR W117^3.28A): 7.76 µM
Emax (turkey β1-AR W117^3.28A; [5]): 16 ± 0.8%
ligand efficacy class (wild-type turkey β1-AR [1]): partial agonist
EC50 (turkey β1-AR Q150^ICL2A): 3.39 µM
Emax (turkey β1-AR Q150^ICL2A; [5]): 44 ± 3.5%
cAMP level (turkey β1-AR Q150^ICL2A; log[ligand] (M) -3): 192 and 204 and 207
cAMP level (turkey β1-AR Q150^ICL2A; log[ligand] (M) -4): 178 and 195 and 219
cAMP level (turkey β1-AR Q150^ICL2A; log[ligand] (M) -5): 151 and 169 and 177
cAMP level (turkey β1-AR Q150^ICL2A; log[ligand] (M) -6): 58 and 69 and 73
cAMP level (turkey β1-AR Q150^ICL2A; log[ligand] (M) -7): 36 and 42 and 43
cAMP level (turkey β1-AR Q150^ICL2A; log[ligand] (M) -8): 36 and 40
cAMP level (turkey β1-AR Q150^ICL2A; log[ligand] (M) -9): 35 and 37 and 41
EC50 (turkey β1-AR P146^ICL2A): 4.07 µM
Emax (turkey β1-AR P146^ICL2A; [5]): 38 ± 2.4%
EC50 (turkey β1-AR T291^6.36A): 6.61 µM
Emax (turkey β1-AR T291^6.36A; [5]): 21 ± 1.7%
cAMP level (turkey β1-AR T291^6.36A; log[ligand] (M) -3): 106 and 116 and 114
cAMP level (turkey β1-AR T291^6.36A; log[ligand] (M) -4): 100 and 115 and 113
cAMP level (turkey β1-AR T291^6.36A; log[ligand] (M) -5): 82 and 86 and 83
cAMP level (turkey β1-AR T291^6.36A; log[ligand] (M) -6): 40 and 42 and 41
cAMP level (turkey β1-AR T291^6.36A; log[ligand] (M) -7): 38 and 39
cAMP level (turkey β1-AR T291^6.36A; log[ligand] (M) -8): 34 and 39
cAMP level (turkey β1-AR T291^6.36A; log[ligand] (M) -9): 34 and 36 and 38
EC50 (turkey β1-AR F147^ICL2A): 11.5 µM
Emax (turkey β1-AR F147^ICL2A; [5]): 17 ± 0.2%
cAMP level (turkey β1-AR F147^ICL2A; Fig 5c,e source data, F147A, log[ligand] (M) -9): 32
EC50 (turkey β1-AR S151^ICL2A): 10.5 µM
Emax (turkey β1-AR S151^ICL2A; [5]): 38 ± 1.6%
cAMP, time course (turkey β1-AR S151^ICL2A; 0 min): 33 and 34 and 31
cAMP, time course (turkey β1-AR S151^ICL2A; 0.5 min): 39 and 36 and 32
cAMP, time course (turkey β1-AR S151^ICL2A; 1 min): 38 and 36
cAMP, time course (turkey β1-AR S151^ICL2A; 2 min): 41 and 45 and 47
cAMP, time course (turkey β1-AR S151^ICL2A; 5 min): 104 and 103
cAMP, time course (turkey β1-AR S151^ICL2A; 10 min): 98 and 96 and 94
cAMP, time course (turkey β1-AR S151^ICL2A; 15 min): 58 and 63 and 55
cAMP, time course (turkey β1-AR S151^ICL2A; 20 min): 48 and 49 and 46
cAMP, time course (turkey β1-AR S151^ICL2A; 25 min): 44 and 46 and 42
cAMP, time course (turkey β1-AR S151^ICL2A; 30 min): 42 and 49 and 46
EC50 (wild-type turkey β1-AR [2]): 1.58 µM
Emax (wild-type turkey β1-AR [2]; [5]): 100%
EC50 (turkey β1-AR E233^5.64A): 7.08 µM
Emax (turkey β1-AR E233^5.64A; [5]): 41 ± 3.7%
EC50 (turkey β1-AR Q237^5.68A): 9.55 µM
Emax (turkey β1-AR Q237^5.68A; [5]): 21 ± 1.7%
cAMP level (turkey β1-AR Q237^5.68A; log[ligand] (M) -3): 103 and 114 and 116
cAMP level (turkey β1-AR Q237^5.68A; log[ligand] (M) -4): 97 and 112 and 118
cAMP level (turkey β1-AR Q237^5.68A; log[ligand] (M) -5): 66 and 82 and 77
cAMP level (turkey β1-AR Q237^5.68A; log[ligand] (M) -6): 39 and 42
cAMP level (turkey β1-AR Q237^5.68A; log[ligand] (M) -7): 36 and 40 and 39
cAMP level (turkey β1-AR Q237^5.68A; log[ligand] (M) -8): 34 and 39 and 40
cAMP level (turkey β1-AR Q237^5.68A; log[ligand] (M) -9): 32 and 37 and 40
EC50 (turkey β1-AR V230^5.61A): 6.17 µM
Emax (turkey β1-AR V230^5.61A; [5]): 36 ± 1.1%
cAMP level (turkey β1-AR V230^5.61A; log[ligand] (M) -3): 167 and 175 and 168
cAMP level (turkey β1-AR V230^5.61A; log[ligand] (M) -4): 164 and 173 and 169
cAMP level (turkey β1-AR V230^5.61A; log[ligand] (M) -5): 121 and 131 and 129
cAMP level (turkey β1-AR V230^5.61A; log[ligand] (M) -6): 39 and 44 and 43
cAMP level (turkey β1-AR V230^5.61A; log[ligand] (M) -7): 36 and 40 and 38
cAMP level (turkey β1-AR V230^5.61A; log[ligand] (M) -8): 35 and 37
cAMP level (turkey β1-AR V230^5.61A; log[ligand] (M) -9): 32 and 37 and 36
cAMP, time course (turkey β1-AR V230^5.61A; 0 min): 30 and 28 and 33
cAMP, time course (turkey β1-AR V230^5.61A; 0.5 min): 32 and 35 and 38
cAMP, time course (turkey β1-AR V230^5.61A; 1 min): 34 and 37 and 35
cAMP, time course (turkey β1-AR V230^5.61A; 2 min): 45 and 41 and 43
cAMP, time course (turkey β1-AR V230^5.61A; 5 min): 126 and 122 and 128
cAMP, time course (turkey β1-AR V230^5.61A; 10 min): 106 and 105 and 108
cAMP, time course (turkey β1-AR V230^5.61A; 15 min): 61 and 56
cAMP, time course (turkey β1-AR V230^5.61A; 20 min): 52 and 50 and 51
cAMP, time course (turkey β1-AR V230^5.61A; 25 min): 46 and 44 and 47
cAMP, time course (turkey β1-AR V230^5.61A; 30 min): 53 and 47 and 55
cAMP, time course (wild-type turkey β1-AR [3]; 0 min): 34 and 32 and 33
cAMP, time course (wild-type turkey β1-AR [3]; 0.5 min): 35 and 36 and 37
cAMP, time course (wild-type turkey β1-AR [3]; 1 min): 57 and 46 and 50
cAMP, time course (wild-type turkey β1-AR [3]; 2 min): 132 and 139 and 131
cAMP, time course (wild-type turkey β1-AR [3]; 5 min): 335 and 327 and 343
cAMP, time course (wild-type turkey β1-AR [3]; 10 min): 326 and 316 and 321
cAMP, time course (wild-type turkey β1-AR [3]; 15 min): 273 and 271 and 269
cAMP, time course (wild-type turkey β1-AR [3]; 20 min): 179 and 172 and 177
cAMP, time course (wild-type turkey β1-AR [3]; 25 min): 125
cAMP signal, time course (wild-type turkey β1-AR [3]; ligand 10^-3 M, time 0 min): 30 and 31 and 29
cAMP signal, time course (wild-type turkey β1-AR [3]; ligand 10^-3 M, time 0.5 min): 33 and 38 and 31
cAMP signal, time course (wild-type turkey β1-AR [3]; ligand 10^-3 M, time 1 min): 63 and 68 and 61
cAMP signal, time course (wild-type turkey β1-AR [3]; ligand 10^-3 M, time 2 min): 163 and 166 and 154
cAMP signal, time course (wild-type turkey β1-AR [3]; ligand 10^-4 M, time 0 min): 32 and 33 and 28
cAMP signal, time course (wild-type turkey β1-AR [3]; ligand 10^-4 M, time 0.5 min): 39 and 41 and 34
cAMP signal, time course (wild-type turkey β1-AR [3]; ligand 10^-4 M, time 1 min): 55 and 61
cAMP signal, time course (wild-type turkey β1-AR [3]; ligand 10^-4 M, time 2 min): 143 and 151 and 141
cAMP signal, time course (wild-type turkey β1-AR [3]; ligand 10^-5 M, time 0 min): 29 and 33 and 31
cAMP signal, time course (wild-type turkey β1-AR [3]; ligand 10^-5 M, time 0.5 min): 34 and 38 and 33
cAMP signal, time course (wild-type turkey β1-AR [3]; ligand 10^-5 M, time 1 min): 47 and 51 and 49
cAMP signal, time course (wild-type turkey β1-AR [3]; ligand 10^-5 M, time 2 min): 133 and 145 and 130
cAMP signal, time course (wild-type turkey β1-AR [3]; ligand 10^-6 M, time 0 min): 30 and 27
cAMP signal, time course (wild-type turkey β1-AR [3]; ligand 10^-6 M, time 0.5 min): 39 and 37 and 38
cAMP signal, time course (wild-type turkey β1-AR [3]; ligand 10^-6 M, time 1 min): 54 and 56 and 55
cAMP signal, time course (wild-type turkey β1-AR [3]; ligand 10^-6 M, time 2 min): 124 and 122 and 120
cAMP signal, time course (wild-type turkey β1-AR [3]; ligand 10^-7 M, time 0 min): 28 and 33 and 26
cAMP signal, time course (wild-type turkey β1-AR [3]; ligand 10^-7 M, time 0.5 min): 34 and 36 and 32
cAMP signal, time course (wild-type turkey β1-AR [3]; ligand 10^-7 M, time 1 min): 37 and 41 and 36
cAMP signal, time course (wild-type turkey β1-AR [3]; ligand 10^-7 M, time 2 min): 50 and 56
cAMP signal, time course (wild-type turkey β1-AR [3]; ligand 10^-8 M, time 0 min): 27 and 28 and 26
cAMP signal, time course (wild-type turkey β1-AR [3]; ligand 10^-8 M, time 0.5 min): 31 and 33 and 29
cAMP signal, time course (wild-type turkey β1-AR [3]; ligand 10^-8 M, time 1 min): 34 and 37
cAMP signal, time course (wild-type turkey β1-AR [3]; ligand 10^-8 M, time 2 min): 43 and 44
cAMP signal, time course (wild-type turkey β1-AR [3]; ligand 10^-9 M, time 0 min): 27 and 31 and 26
cAMP signal, time course (wild-type turkey β1-AR [3]; ligand 10^-9 M, time 0.5 min): 31 and 36 and 32
cAMP signal, time course (wild-type turkey β1-AR [3]; ligand 10^-9 M, time 1 min): 32 and 34 and 27
cAMP signal, time course (wild-type turkey β1-AR [3]; ligand 10^-9 M, time 2 min): 37 and 40 and 35
time-dependent cAMP response (phases) (wild-type turkey β1-AR [3]; near-saturating concentration (EC90), Fig. 6): a slower signal activation phase and an even slower signal termination phase
Complex half-life [4]: 6.9 ± 0.6 min
